Reference: patent US20240307350A1, “5-METHOXY-N,N-DIMETHYLTRYPTAMINE (5-MEO-DMT) FOR TREATING DEPRESSION” (GH RESEARCH IRELAND LIMITED, priority 2019, published 2024)

Tested on: patients with treatment-resistant major depressive disorder
Experiment: Clinical trial in treatment-resistant major depressive disorder: intensity of the psychedelic effects (MEQ30, ASC, PPEQ)
Assay type: in vivo, human
Settings: for ASC Oceanic Boundlessness (0-2700) / MEQ30 Ineffability (0 to 5) / MEQ30 Mystical (0 to 5) / MEQ30 Positive Mood (0 to 5) / MEQ30 Total Score Average (0 to 5) / MEQ30 Transcendence Time/Space (0 to 5) / PPEQ Intensity (0-100) / PPEQ Loss of Control (0-100) / PPEQ Profoundness (0-100) / PPEQ Total Score (0-100) / PPEQ PPE achieved / MEQ30 PPE achieved / ASC PPE achieved: 12 mg inhaled; for PPEQ PPE achieved: PPEQ Total Score of at least 75; for MEQ30 PPE achieved: at least 60% of the maximum possible score in each of the four subscales; for ASC PPE achieved: at least 60% of the maximum possible score of Oceanic Boundlessness
Text: The occurrence of a “peak psychedelic experience” in a patient can be identified through achievement of at least 60% of the maximum possible score in each of the four subscales (mystical, positive mood, transcendence of time and space, and ineffability) of the 30-item revised Mystical Experience Questionnaire (MEQ30) (as described in Barrett F S, J Psychopharmacol. 2015; 29(11):1182-90; Score items shown in Example 4).
The occurrence of a “peak psychedelic experience” in a patient can also be identified through achievement of at least 60% of the maximum possible score of the Oceanic Boundlessness (OBN) dimension of the Altered States of Consciousness (ASC) questionnaire (as described in Roseman L et al., Front Pharmacol. 2018; 8:974).
The occurrence of a “peak psychedelic experience” in a patient can also be identified through achievement of a score of at least 75 in the Peak Psychedelic Experience Questionnaire (PPEQ) Total Score, which averages answers scored by the patient from 0 to 100 for the following three questions: 1. How intense was the experience; 2. To what extent did you lose control; 3. How profound (i.e. deep and significant) was the experience?
A clinical trial was performed in which 5-MeO-DMT free base (purity not less than 99%) was administered to patients with treatment-resistant major depressive disorder (TRD). The objectives of the study were to assess the safety and tolerability, the dose-related psychedelic effects and the effects on various measures of depression of single-day dosing of 5-MeO-DMT. The trial was reviewed and approved by the relevant national competent authority and local medical ethics committee. Patients recruited into the trial had to meet the Diagnostic and Statistical Manual of Mental Disorders-Fifth Edition (DSM-5) diagnostic criteria for single-episode or recurrent major depressive disorder and had to be treatment-resistant, both aspects as evaluated by a psychiatrist or registered psychologist. Patients who were using any psychoactive medication or substance (such as anti-depressive medication) had to discontinue such medication or substance and had to observe a wash-out period before the 5-MeO-DMT administration. On the administration day, a single dose of 12 mg 5-MeO-DMT was administered to the patients via a single inhalation as described in Example 1A. Patients were closely monitored for 3.5 hours after administration, with additional follow-up visits 1 day and 7 days after dosing. Various safety related measures (e.g., adverse event reporting, safety laboratory analyses, vital signs, electrocardiogram (ECG), Clinician Administered Dissociative States Scale (CADSS), Psychomotor Vigilance Test (PVT), Digit Symbol Substitution Test (DSST)), measures of the intensity of the psychedelic effects (e.g., Peak Psychedelic Experience Questionnaire (PPEQ), Altered States of Consciousness (ASC) Questionnaire, Mystical Experience Questionnaire (MEQ30), subjective description of the psychedelic experience), measures of depression severity (Montgomery-Åsberg Depression Rating Scale (MADRS), Patient's Global Impression of Severity scale (PGI-S), Patient's Global Impression of Improvement scale (PGI-I)), and additional psychological measures (e.g., Columbia-Suicide Severity Rating Scale (C-SSRS), Brief Psychiatric Rating Scale (BPRS)) were recorded at different time points. Psychological support via a psychologist and/or psychiatrist was available to the patients throughout the study, but no specific psychotherapy was applied, and no additional psychoactive medication was provided.
The score for each individual subscale is computed by calculating the average score (from the scale of 0 to 5) for the phenomena belonging to the subscale as listed below.
The MEQ30-total score is computed by taking the average response to all phenomena. […]

Structure (SMILES): COc1ccc2[nH]cc(CCN(C)C)c2c1 [5-MeO-DMT, 5-methoxy-N,N-dimethyltryptamine]
- ASC Oceanic Boundlessness (0-2700) (Patient 1): 1696
- MEQ30 Ineffability (0 to 5) (Patient 1): 4.7
- MEQ30 Mystical (0 to 5) (Patient 1): 3.5
- MEQ30 Positive Mood (0 to 5) (Patient 1): 4.5
- MEQ30 Total Score Average (0 to 5) (Patient 1): 3.8
- MEQ30 Transcendence Time/Space (0 to 5) (Patient 1): 3.7
- PPEQ Intensity (0-100) (Patient 1): 94
- PPEQ Loss of Control (0-100) (Patient 1): 45
- PPEQ Profoundness (0-100) (Patient 1): 87
- PPEQ Total Score (0-100) (Patient 1): 75.3
- PPEQ PPE achieved (Patient 1): Yes
- MEQ30 PPE achieved (Patient 1): Yes
- ASC PPE achieved (Patient 1): Yes
- ASC Oceanic Boundlessness (0-2700) (Patient 2): 1297
- MEQ30 Ineffability (0 to 5) (Patient 2): 3.3
- MEQ30 Mystical (0 to 5) (Patient 2): 3.1
- MEQ30 Positive Mood (0 to 5) (Patient 2): 4.0
- MEQ30 Total Score Average (0 to 5) (Patient 2): 3.4
- MEQ30 Transcendence Time/Space (0 to 5) (Patient 2): 3.5
- PPEQ Intensity (0-100) (Patient 2): 100
- PPEQ Loss of Control (0-100) (Patient 2): 58
- PPEQ Profoundness (0-100) (Patient 2): 80
- PPEQ Total Score (0-100) (Patient 2): 79.3
- PPEQ PPE achieved (Patient 2): Yes
- MEQ30 PPE achieved (Patient 2): Yes
- ASC PPE achieved (Patient 2): No
- duration of the psychedelic experience as judged by an external observer (patient 1, single dose of 12 mg via inhalation): 16 min
- duration of the psychedelic experience as judged by an external observer (patient 2, single dose of 12 mg via inhalation): 40 min
- first psychedelic symptoms after the inhalation (onset) (single dose of 12 mg via inhalation, both patients): within a few seconds
